The values that follow come from patent EP2951180B1, “2,6,7,8 SUBSTITUTED PURINES AS HDM2 INHIBITORS” (Merck Sharp & Dohme Corp., priority 2013, dated 2014).

Read-outs that look alike come from different tables or passages of the source.

For this experiment, the target named is T1, HDM2 (Homo sapiens, UniProt Q00987).
T1 construct: Thioredoxin (N); made in house; host or cells: E. coli strain BL21(DE3)Rosetta
Put plainly: HDM2 FRET assay (inhibition of binding of FITC labeled p53-pocket peptide to HDM2). The note with it: read-out: FRET IC50. In outline:
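TR-FRET with 0.5 nM His-tagged recombinant HDM2, 3 nM FITC-labelled p53 peptide and 0.25 nM Tb-anti-His antibody in PBS, 0.01% BSA, 0.01% Tween-20, 0.1% DMSO. IC50 from em520/em495 ratio over 10-point dilutions, 4-parameter logistic fit.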

[1] abbreviates: 0.5 nM HDM2 (residues 17 to 125), 3nM peptide, two hour incubation at room temperature.

T1 sequence (Q00987 17-125): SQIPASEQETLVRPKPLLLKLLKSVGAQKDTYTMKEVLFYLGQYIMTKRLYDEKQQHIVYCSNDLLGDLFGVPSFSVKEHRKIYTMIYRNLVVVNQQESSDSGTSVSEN

As a reminder, the IC50 is the concentration that inhibits the measured activity by half. As to `CC(C)c1ccnc(-c2nc3nc(C(=O)O)nc(OC(C)C4CCC4)c3n2Cc2ccc(C(F)(F)F)c(F)c2)c1` (racemic) [Example 17.7, 6-(1-cyclobutylethoxy)-7-[3-fluoro-4-(trifluoromethyl)benzyl]-8-[4-(propan-2-yl)pyridin-2-yl]-7H-purine-2-carboxylic acid], under setting [1], the 50% inhibitory concentration (IC50) amounted to 15 nM.

Turning to `C[C@@H](Nc1nc(-c2noc(=O)[nH]2)nc2nc(N3CCOC[C@@H]3c3ccccc3)n(C[C@H]3CC[C@H](C)CC3)c12)C1CCC1` [Example 11.67, 3-(6-{[(1R)-1-cyclobutylethyl]amino}-7-[(trans-4-methylcyclohexyl)methyl]-8-[(3S)-3-phenylmorpholin-4-yl]-7H-purin-2-yl)-1,2,4-oxadiazol-5(4H)-one], under “Table 11”, the half-maximal inhibitory concentration (IC50) stood at 10.8 nM.

Consider `C[C@@H](Nc1nc(-c2noc(=O)[nH]2)nc2nc(N3CCOCC3(C)C)n(C[C@H]3CC[C@H](C)CC3)c12)C1CCC1` [Example 11.98, 3-(6-{[(1R)-1-cyclobutylethyl]amino}-8-(3,3-dimethylmorpholin-4-yl)-7-[(trans-4-methylcyclohexyl)methyl]-7H-purin-2-yl)-1,2,4-oxadiazol-5(4H)-one], for which the concentration for half-maximal inhibition (IC50) (Table 11) was found to be 2.52 nM.

In the case of `Cc1cccc(-c2nc3nc(C(=O)O)nc(NC(C4CC4)C4CC4)c3n2Cc2ccc(C(F)(F)F)cc2)c1` [Example 6.24, 6-[(dicyclopropylmethyl)amino]-8-(3-methylphenyl)-7-[4-(trifluoromethyl)benzyl]-7H-purine-2-carboxylic acid], the IC50 (Table 6) worked out at 329 nM.

Turning to `Cc1cc(-c2ccccc2)nn1-c1nc2nc(C(=O)O)nc(N[C@H](C)C3CCC3)c2n1Cc1ccc(C(F)(F)F)cc1` [Example 9.61, 6-{[(1R)-1-cyclobutylethyl]amino}-8-(5-methyl-3-phenyl-1H-pyrazol-1-yl)-7-[4-(trifluoromethyl)benzyl]-7H-purine-2-carboxylic acid], for the setting “Table 9”, the concentration for half-maximal inhibition (IC50) was determined as 300 nM.

With `C[C@H]1COCCN1c1nc2nc(-c3noc(=O)[nH]3)nc(-c3cncc(Cl)c3)c2n1C[C@H]1CC[C@H](C)CC1` [Example 16.43, 3-{6-(5-chloropyridin-3-yl)-7-[(trans-4-methylcyclohexyl)methyl]-8-[(3S)-3-methylmorpholin-4-yl]-7H -purin-2-yl}-1,2,4-oxadiazol-5(2H)-one], the IC50 under setting [1] amounted to 239 nM.

In the case of `C[C@@H](Nc1nc(C(=O)O)nc2nc(N3CCc4ccccc4C3)n(Cc3ccc(C(F)(F)F)cc3)c12)C1CCC1` [Example 9.121, 6-{[(1R)-1-cyclobutylethyl]amino}-8-(3,4-dihydroisoquinolin-2(1H)-yl)-7-[4-(trifluoromethyl)benzyl]-7H-purine-2-carboxylic acid], where the note is “Table 9”, the half-inhibitory concentration (IC50) worked out at 10.6 nM.

As to `CC1CS(=O)(=O)CCN1c1nc2nc(-c3noc(=O)[nH]3)nc(N[C@H](C)C3CCC3)c2n1C[C@H]1CC[C@H](C)CC1` (stereo partly drawn) [Example 11.124, 3-[6-{[(1R)-1-cyclobutylethyl]amino}-7-[(trans-4-methylcyclohexyl)methyl]-8-(3-methyl-1,1-dioxidothiomorpholin-4-yl)-7H-purin-2-yl]-1,2,4-oxadiazol-5(2H)-one], the IC50 (Table 11) is 9.62 nM.

For the compound `Cc1cccc(-c2nc3nc(C(=O)O)nc(N(C)CC(C)C)c3n2Cc2ccc(C(F)(F)F)cc2)c1` [Example 6.71, 6-[methyl(2-methylpropyl)amino]-8-(3-methylphenyl)-7-[4-(trifluoromethyl)benzyl]-7H-purine-2-carboxylic acid], where the note is “Table 6”, the IC50 came to 940 nM.

Regarding `C[C@H]1CC[C@H](Cn2c(N3CCOC[C@H]3c3ccccc3)nc3nc(-c4noc(=O)[nH]4)nc(-c4cc(Cl)cc(N5CCCC5)c4)c32)CC1` [Example 16.113, 3-{6-(3-chloro-5-pyrrolidin-1-ylphenyl)-7-[(trans-4-methylcyclohexyl)methyl]-8-[(3R)-3-phenylmorpholin-4-yl]-7H-purin-2-yl}-1,2,4-oxadiazol-5(4H)-one], the half-maximal inhibitory concentration (IC50) under setting [1] was 14.9 nM.
